Data reported in patent US4847297A, “Use of penicillamine for treating immune damaging illnesses” (Degussa Aktiengesellschaft, priority 1985, dated 1989).

Key:
[1] = test system: HTLV-III virus (LAV-I virus); test: inhibition of HTLV-III (LAV-I) virus replication in cell culture; assay type: cell-based, HTLV-III virus in H9 cells (human T-cell line); conditions: in vitro; for inhibition at 20 µg/mL / inhibition at 40 µg/mL: Human immunodeficiency virus 1, H9, 96 h, cell culture; for inhibition at 20 µg/mL: 20 μg/ml, read-out: prevention of replication of HTLV-III virus (LAV-I virus); for inhibition at 40 µg/mL: 40 μg/ml, read-out: effectiveness in vitro (prevention of virus replication)
Method: At a concentrate of 20 μg/ml the replication of HTLV-III--virus (LAV-I-virus) is prevented in a cell culture with L-penicillamine to an extent of about 95% and with D-penicillamine to about 80%. At a concentration of 40 μg/ml, the effectiveness of both L-penicillamine and D-penicillamine in vitro is nearly 100%.
(§1) HTLV-III virus infection of H9 cells (human T-cell line of a leukemia patient of the National Cancer Institute, Bethesda, Md., USA); the H9 cells were trreated with Polybrene (Hexadimethrine bromide) (2 μg/ml) for 30 minutes at 37° C., subsequently the Polybrene was washed out and the cells were infected with 2×10^8 HTLV virus particles per 4×10^5 H9 cells. Before the infection, the virus was incubated with the material at various concentrations for 45 minutes at 37° C. For controls, the virus was incubated under the same experimental conditions but without addition of the material. The cell cultures were analyzed on the 4th day after infection as follows:
(§2) Immunofluorescence analysis: The effect of D- and L-penicillamine on the propagation of the HTLV-III virus in H9 cells was determined by measuring the proteins p15 and p24 (molecular weight 15,000 respectively 24,000) present in HTLV-III. The immunofluorescence analysis was carried out on fixed methanol:acetone (1:1) cells using monoclonal antibodies (National Cancer Institute USA) against HTLV-III p15 and p24. The infected cells treated with or without penicillamine were secured on toxoplasmosis glass slides. After 30 minutes treatment with methanol-acetone (1:1) at room temperature, the glass slides were stored in closed plastic containers at -20° C. until use. The monoclonal antibodies were added to duplicate wells, incubated at room temperature in a moist chamber for 1 hour and washed with PBS (phosphate buffered saline) solution containing 0.25% Triton X-100 for two hours. The cells were then exposed to goatantimouse IgG (Capell Labs.) bound with fluorescein (FITC) for 1 hour and washed with PBS buffer solution containing 0.25% Triton X-100 overnight. The glass sides were mounted with 50% glycerine and the cell fluorescence observed with a Zeiss fluorescence microscope.

[2] = test system: HTLV-III virus (viral protein p15); test: propagation of HTLV-III in H9 cells, formation of viral protein p15, immunofluorescence with monoclonal antibodies; assay type: cell-based, HTLV-III virus in H9 cells (human T-cell line); conditions: for prevention of the formation of p15 virus protein (in words): FIG. 1, concentration dependence; for inhibition at 40 µg/mL: Human immunodeficiency virus 1, H9, 40 μg/ml, 4th day after infection
Method: FIG. 1 is a graph of the effect of D- and L-penicillamine on the propagation of HTLV-III in H9 cells through the function of the concentration determined by the formation of the viral protein 15; and
as §1, §2
(§3) The effect of D- and L-penicillamine on the propagation of HTLV-III in H9 cells was determined through the function of the material concentration by the formation of the viral proteins p15 (FIG. 1) and p24 (FIG. 2) in an immunofluorescence assay with monoclonal antibodies.

[3] = test system: HTLV-III virus (viral protein p24); test: propagation of HTLV-III in H9 cells, formation of viral protein p24, immunofluorescence with monoclonal antibodies; assay type: cell-based, HTLV-III virus in H9 cells (human T-cell line); conditions: for prevention of the formation of p24 (in words): FIG. 2, same manner as with p15; for IC100: Human immunodeficiency virus 1, H9, 96 h, p24, FIG. 2, 4th day after infection, read-out: concentration needed for complete inactivation of the viral replication
Method: FIG. 2 is a similar graph where the determination was by the formation of viral protein p24.
as §1, §2, §3

[4] = in vitro; assay type: cell-based, human; conditions: human, h9 cells
Method: as §1
(§4) In order to show the selectivity of the effect on the replication of HTLV-III virus, the effect of D- and L-penicillamine on the growth of H9 cells can be examined.
(§5) The number of cells was determined 4 days after the experiment began.

[5] = test system: HTLV-III infected H9 cells; test: growth of HTLV-III infected H9 cells; assay type: cell-based, human; conditions: for Number of cells/ml × 10^-6, infected / effect on number of infected H9 cells (in words): 4 days after infection; for Number of cells/ml × 10^-6, infected: control 0.18; for effect on number of infected H9 cells (in words): increasing concentration; for protective effect on T-cells: infected H9 cells
Method: as §1, §4, §5
4 days after the infection with the HTLV-III virus the number of H9 cells is reduced from 1.24×10^6 to 0.18×10^6.

[6] = in vivo, cited from earlier work
[7] = test system: plasma proteins (preponderantly albumen); conditions: cited from earlier work
[8] = test system: non-infected H9 cells; test: in vitro; assay type: cell-based, human
Method: as §1, §4, §5

## CC(C)(S)[C@@H](N)C(=O)O [D-penicillamine]
[1]
  inhibition at 20 µg/mL: ~80%
  inhibition at 40 µg/mL: ~100%
[2]
  prevention of the formation of p15 virus protein (in words): concentration dependent prevention of the formation of p15 virus protein
  inhibition at 40 µg/mL: 98.5 to 99.4%
[3]
  prevention of the formation of p24 (in words): prevent the formation of p24
  IC100: 40 µg/mL
[4]
  MCC at 96 h: > 100 µg/mL
[5]; 30 μg/ml
  Number of cells/ml × 10^-6, infected: 0.27 cells/ml × 10^-6
[5]; 40 μg/ml
  Number of cells/ml × 10^-6, infected: 0.35 cells/ml × 10^-6
[5]; 100 μg/ml
  Number of cells/ml × 10^-6, infected: 0.8 cells/ml × 10^-6
[5]
  effect on number of infected H9 cells (in words): considerable increase of the cell number
  protective effect on T-cells: protective effect on T-cells
[6]; po
  resorption after oral administration: about 60%
[6]
  distribution over the entire organism: distributed relatively quickly over the entire organism
  elimination in unchanged form: up to 10%
  route and form of elimination: predominantly via the kidneys, the greatest part as disulfide
[7]
  binding to plasma proteins: bound to plasma proteins (preponderantly albumen)
  free (not protein bound) concentration with increasing dosage: obviously increases with increasing dosage

## CC(C)(S)[C@H](N)C(=O)O [L-penicillamine]
[1]
  inhibition at 20 µg/mL: ~95%
  inhibition at 40 µg/mL: ~100%
[2]
  prevention of the formation of p15 virus protein (in words): concentration dependent prevention of the formation of p15 virus protein
  inhibition at 40 µg/mL: 98.5 to 99.4%
[2]; lower concentration, FIG. 1
  effectiveness at lower concentration, L- versus D-penicillamine (p15): more effective than D-penicillamine
[3]
  prevention of the formation of p24 (in words): prevent the formation of p24
  IC100: 40 µg/mL
[5]; 30 μg/ml
  Number of cells/ml × 10^-6, infected: 0.35 cells/ml × 10^-6
[5]; 40 μg/ml
  Number of cells/ml × 10^-6, infected: 0.38 cells/ml × 10^-6
[5]; 100 μg/ml
  Number of cells/ml × 10^-6, infected: 0.98 cells/ml × 10^-6
[5]
  effect on number of infected H9 cells (in words): considerable increase of the cell number
  protective effect on T-cells: protective effect on T-cells

## CC(C)(S)[C@H](N)C(=O)O [penicillamine]
[1]
  inhibition of virus replication (in words): can greatly inhibit the virus replication
[8]
  toxicity to the normal cell growth: shows no toxicity to the normal cell growth
